Data published in publication PMC5317004 (Scientific Reports, 2017).
Several values for one entry are separate records, joined by “and”; a condition that tells them apart may be missing. Equal entries are not always repeated.

How the values were obtained:
chimeric α7-GluClβR = assay: Voltage ramps during current decline: reversal potential, chloride chord conductance, IVM rate constants; format: cell-based, chick nAChR α7 / C. elegans GluClβ
Procedure: Figure 6 Chloride conductance of α7-GluClβRs. Representative whole-cell current traces elicited by: (A) ACh alone and (B) ACh to which IVM was added after the current peak. Recordings were performed at −60 mV with intervening 200-ms-long voltage ramps applied from −80 to +20 mV during the current decline, giving output currents r1–r13. *, time lapse of ~1 sec between protocols’ exchange (see “Supplementary Materials and Methods”). Traces in A and B were recorded from the same cell, with an intermediate 74-sec-long wash. Right panels show superimposition of the output currents. (C,D) Current-voltage (I/V) relations extracted from A and B, respectively (r13 in D overlaps the x-axis). (E) Reversal potentials (Erev) extracted from the voltage-ramps’ output currents of A (black squares) and B (red circles), plotted as a function of time (0 sec, time of r1). (F) Decay of chloride chord conductance plotted as a function of time, in the absence or presence of IVM. The conductance points were calculated at −65 mV based on the voltage-ramps’ output currents shown in A and B. Exponential fits (Eq. 6) are shown. (G,H) Normalized (Norm.) conductance (G), current (I), intracellular Cl^− ion concentration ([Cl]i), and electrochemical driving force (VDF) plotted as a function of time for ACh-dependent responses in the absence (panel G) or presence (panel H) of IVM (relating to responses in A and B, respectively). (I,J) Decay of chloride chord conductance plotted as a function of time in representative cells exposed to different IVM concentrations. (K,L,M) Averaged normalized chloride chord conductance (Norm. G) plotted as a function of time under different IVM concentrations. In each cell, each conductance was normalized to the conductance extracted from r1 of the ACh-alone application. N = 7, 11 and 8 in K, L and M, respectively. Error bars are SEM. (N) 1/τIVM plotted as a function of IVM concentration, using equation 7 for curve fitting by linear regression (r^2 = 0.999). 26 cells were analyzed to obtain the averaged 1/τIVM points. Error bars are SEM.
We then took advantage of the capability of IVM to accelerate the current decline in order to determine the binding affinity of IVM. To this end, the voltage ramps’ output currents obtained in the presence of IVM were subtracted from their counterpart currents obtained in the absence of IVM. Then, we calculated the chloride conductance based on the resulting subtracted currents at each ramp. This chloride conductance is hereafter termed GIVM. In each experimented cell, we fitted exponential curves to the first 5-6 conductance points, where there was no substantial difference between the ∆Erev values in the absence or presence of IVM. These exponential fits for the GIVM points were obtained at various IVM concentrations, and they actually provide the time constant of the IVM-dependent Cl^−-conductance decay (τIVM).
Chord conductance (G) was calculated by using equation 5 as follows: […]
The relationship between the conductance values and time was plotted for each cell, and the time constant of conductance decay was determined by fitting an exponential curve to the data points using equation 6 as follows: […]
To calculate the IVM association (kf) and dissociation (kb) rate constants, a curve was fitted to the 1/τIVM values by a linear regression using equation 7 as follows: where τIVM is the time constant of the IVM-dependent Cl^−-conductance decay, and [IVM] is the concentration of IVM. […]

[1] = LUVs 6 mM, 5 minutes incubation plus 20-minutes ultracentrifugation; depending on the LUVs' lipid composition; cited from earlier work

Which “IVM-dependent decrease in the chloride conductance” value (chimeric α7-GluClβR; 0.5 μM IVM, 740 milliseconds after application, 30 μM ACh) does the source give for `CC[C@H](C)[C@H]1O[C@]2(CC[C@@H]1C)C[C@@H]1C[C@@H](C/C=C(\C)[C@@H](O[C@H]3C[C@H](OC)[C@@H](O[C@H]4C[C@H](OC)[C@@H](O)[C@H](C)O4)[C@H](C)O3)[C@@H](C)/C=C/C=C3\CO[C@@H]4[C@H](O)C(C)=C[C@@H](C(=O)O1)[C@]34O)O2` [IVM, Ivermectin] here?
Its value is 20 ± 2%.

And the “leftward shift in reversal potential (∆Erev)” value (chimeric α7-GluClβR; 30 μM ACh plus 4 μM IVM added after the peak, representative cell)?
The value was 11 mV.

What about the Kd (chimeric α7-GluClβR; IVM applied after activation by ACh, read-out: Kd (kb/kf) for IVM binding to activated receptor) of the same compound?
Its Kd is 1.4 µM.

And the “Kd (after activation) relative to IC50/Ki (prior to activation)” value (chimeric α7-GluClβR; Kd […] vs 156 nM)?
Its value is “nine times higher”.

What about the “IVM association rate constant (k forward, kf)” value (chimeric α7-GluClβR; slope of 1/τIVM vs IVM concentration, 30 μM ACh, 26 cells) of the same compound?
Its value is 290800 M^−1⋅s^−1.

And the “depletion of IVM from the aqueous solution” value [1]?
Its value is 50% and 70%.
